# In PubChem BioAssay (NCI):
#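 Briefly, cells in 96-well plates were exposed to five compound concentrations for 48 h, and endpoints were estimated by linear interpolation. GI50 is the concentration that inhibits growth by half. TGI: concentration producing complete growth inhibition.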
# Legend:
# Experiment in all cases: inhibition of tumour cell growth, NCI panel, 48 h
# SF-268 CNS = test system: SF-268 CNS
# IGROV1 ovarian = test system: IGROV1 ovarian
# LOX IMVI melanoma = test system: LOX IMVI melanoma
# PC-3 prostate = test system: PC-3 prostate
# ACHN renal = test system: ACHN renal
# RPMI-8226 leukemia = test system: RPMI-8226 leukemia
# TK-10 renal = test system: TK-10 renal
# SF-539 CNS = test system: SF-539 CNS
# SNB-19 CNS = test system: SNB-19 CNS
# SR leukemia = test system: SR leukemia
# UACC-257 melanoma = test system: UACC-257 melanoma
# OVCAR-5 ovarian = test system: OVCAR-5 ovarian
# 786-0 renal = test system: 786-0 renal
# EKVX NSCLC = test system: EKVX NSCLC
# SK-OV-3 ovarian = test system: SK-OV-3 ovarian
# NCI-H522 lung = test system: NCI-H522 lung
# HCC-2998 colon = test system: HCC-2998 colon
# MOLT-4 leukemia = test system: MOLT-4 leukemia
# NCI/ADR-RES ovarian = test system: NCI/ADR-RES ovarian
# RXF 393 renal = test system: RXF 393 renal
# MDA-MB-435 = test system: MDA-MB-435
# KM12 colon = test system: KM12 colon
# NCI-H23 lung = test system: NCI-H23 lung
# MDA-MB-468 breast = test system: MDA-MB-468 breast
# SN12C renal = test system: SN12C renal
# HOP-92 NSCLC = test system: HOP-92 NSCLC
# A498 renal = test system: A498 renal
# OVCAR-4 ovarian = test system: OVCAR-4 ovarian
# MCF7 breast = test system: MCF7 breast
# OVCAR-8 ovarian = test system: OVCAR-8 ovarian
# DU-145 prostate = test system: DU-145 prostate
# U251 CNS = test system: U251 CNS
# CAKI-1 renal = test system: CAKI-1 renal
# SW-620 colon = test system: SW-620 colon
# SK-MEL-28 melanoma = test system: SK-MEL-28 melanoma
# MALME-3M melanoma = test system: MALME-3M melanoma
# NCI-H226 lung = test system: NCI-H226 lung
# HT29 colon = test system: HT29 colon
# HCT-15 colon = test system: HCT-15 colon
# HL-60(TB) leukemia = test system: HL-60(TB) leukemia
# K-562 leukemia = test system: K-562 leukemia
# HCT-116 colon = test system: HCT-116 colon
# UACC-62 melanoma = test system: UACC-62 melanoma
# CCRF-CEM leukemia = test system: CCRF-CEM leukemia
# M14 melanoma = test system: M14 melanoma
# NCI-H460 lung = test system: NCI-H460 lung
# SK-MEL-5 melanoma = test system: SK-MEL-5 melanoma
# COLO 205 colon = test system: COLO 205 colon
# OVCAR-3 ovarian = test system: OVCAR-3 ovarian
# BT-549 breast = test system: BT-549 breast
# SF-295 CNS = test system: SF-295 CNS
# T-47D breast = test system: T-47D breast
# HOP-62 NSCLC = test system: HOP-62 NSCLC
# HS 578T breast = test system: HS 578T breast
# A549 NSCLC = test system: A549 NSCLC
compound,measurement,setting,value
CS(=O)(=O)Nc1ccc(-c2ccc3c(c2)ncn3-c2ccc(NC(=O)Nc3ccc(Br)cc3)cc2)cc1,GI50,SF-268 CNS,3.41 µM
same,TGI,SF-268 CNS,> 72.3 µM
same,GI50,IGROV1 ovarian,3.17 µM
same,TGI,IGROV1 ovarian,> 72.3 µM
same,GI50,LOX IMVI melanoma,2.64 µM
same,TGI,LOX IMVI melanoma,44.3 µM
same,GI50,PC-3 prostate,2.69 µM
same,TGI,PC-3 prostate,> 72.3 µM
same,GI50,ACHN renal,2.55 µM
same,TGI,ACHN renal,12.3 µM
same,GI50,RPMI-8226 leukemia,1.52 µM
same,TGI,RPMI-8226 leukemia,3.85 µM
same,GI50,TK-10 renal,3.32 µM
same,TGI,TK-10 renal,> 72.3 µM
same,GI50,SF-539 CNS,0.83 µM
same,TGI,SF-539 CNS,7.64 µM
same,GI50,SNB-19 CNS,2.57 µM
same,TGI,SNB-19 CNS,> 72.3 µM
same,GI50,SR leukemia,1.39 µM
same,TGI,SR leukemia,3.47 µM
same,GI50,UACC-257 melanoma,2.17 µM
same,TGI,UACC-257 melanoma,7.89 µM
same,GI50,OVCAR-5 ovarian,3.4 µM
same,TGI,OVCAR-5 ovarian,> 72.3 µM
same,GI50,786-0 renal,2.25 µM
same,TGI,786-0 renal,16 µM
same,GI50,EKVX NSCLC,2.4 µM
same,TGI,EKVX NSCLC,> 72.3 µM
same,GI50,SK-OV-3 ovarian,2.92 µM
same,TGI,SK-OV-3 ovarian,> 72.3 µM
same,GI50,NCI-H522 lung,2.11 µM
same,TGI,NCI-H522 lung,31.2 µM
same,GI50,HCC-2998 colon,3.32 µM
same,TGI,HCC-2998 colon,> 72.3 µM
same,GI50,MOLT-4 leukemia,1.37 µM
same,TGI,MOLT-4 leukemia,4.31 µM
same,GI50,NCI/ADR-RES ovarian,10.8 µM
same,TGI,NCI/ADR-RES ovarian,> 72.3 µM
same,GI50,RXF 393 renal,1.16 µM
same,TGI,RXF 393 renal,4.56 µM
same,GI50,MDA-MB-435,2.62 µM
same,TGI,MDA-MB-435,> 72.3 µM
same,GI50,KM12 colon,0.336 µM
same,TGI,KM12 colon,> 72.3 µM
same,GI50,NCI-H23 lung,2.57 µM
same,TGI,NCI-H23 lung,> 72.3 µM
same,GI50,MDA-MB-468 breast,2.26 µM
same,TGI,MDA-MB-468 breast,10.9 µM
same,GI50,SN12C renal,2.37 µM
same,TGI,SN12C renal,> 72.3 µM
same,GI50,HOP-92 NSCLC,3.39 µM
same,TGI,HOP-92 NSCLC,> 72.3 µM
same,GI50,A498 renal,3.42 µM
same,TGI,A498 renal,21.5 µM
same,GI50,OVCAR-4 ovarian,3.13 µM
same,TGI,OVCAR-4 ovarian,> 72.3 µM
same,GI50,MCF7 breast,1.81 µM
same,TGI,MCF7 breast,7.89 µM
same,GI50,OVCAR-8 ovarian,2.81 µM
same,TGI,OVCAR-8 ovarian,> 72.3 µM
same,GI50,DU-145 prostate,3.36 µM
same,TGI,DU-145 prostate,> 72.3 µM
same,GI50,U251 CNS,2.4 µM
same,TGI,U251 CNS,> 72.3 µM
same,GI50,CAKI-1 renal,6 µM
same,TGI,CAKI-1 renal,> 72.3 µM
same,GI50,SW-620 colon,3.05 µM
same,TGI,SW-620 colon,> 72.3 µM
same,GI50,SK-MEL-28 melanoma,2.18 µM
same,TGI,SK-MEL-28 melanoma,> 72.3 µM
same,GI50,MALME-3M melanoma,1.95 µM
same,TGI,MALME-3M melanoma,5.94 µM
same,GI50,NCI-H226 lung,3.08 µM
same,TGI,NCI-H226 lung,> 72.3 µM
same,GI50,HT29 colon,2.43 µM
same,TGI,HT29 colon,> 72.3 µM
same,GI50,HCT-15 colon,2.4 µM
same,TGI,HCT-15 colon,> 72.3 µM
same,GI50,HL-60(TB) leukemia,1.49 µM
same,TGI,HL-60(TB) leukemia,3.33 µM
same,GI50,K-562 leukemia,1.88 µM
same,TGI,K-562 leukemia,4.91 µM
same,GI50,HCT-116 colon,2.33 µM
same,TGI,HCT-116 colon,> 72.3 µM
same,GI50,UACC-62 melanoma,2.25 µM
same,TGI,UACC-62 melanoma,9.2 µM
same,GI50,CCRF-CEM leukemia,2.12 µM
same,TGI,CCRF-CEM leukemia,7.23 µM
same,GI50,M14 melanoma,2.36 µM
same,TGI,M14 melanoma,> 72.3 µM
same,GI50,NCI-H460 lung,2.64 µM
same,TGI,NCI-H460 lung,> 72.3 µM
same,GI50,SK-MEL-5 melanoma,2.35 µM
same,TGI,SK-MEL-5 melanoma,7.81 µM
same,GI50,COLO 205 colon,2.59 µM
same,TGI,COLO 205 colon,> 72.3 µM
same,GI50,OVCAR-3 ovarian,2.76 µM
same,TGI,OVCAR-3 ovarian,> 72.3 µM
same,GI50,BT-549 breast,2.64 µM
same,TGI,BT-549 breast,12.8 µM
same,GI50,SF-295 CNS,1.57 µM
same,TGI,SF-295 CNS,4.41 µM
same,GI50,T-47D breast,2.75 µM
same,TGI,T-47D breast,> 72.3 µM
same,GI50,HOP-62 NSCLC,2.54 µM
same,TGI,HOP-62 NSCLC,13 µM
same,GI50,HS 578T breast,2.42 µM
same,TGI,HS 578T breast,> 72.3 µM
same,GI50,A549 NSCLC,2.44 µM
same,TGI,A549 NSCLC,> 72.3 µM
COc1cccc(C2C(C#N)=C(N)Oc3cc(OC)ccc32)c1 (stereo not given),GI50,MDA-MB-468 breast,0.0322 µM
same,TGI,MDA-MB-468 breast,> 60 µM
CCC(C)CC(CC)NCCN1CCN(C(CC)CC(C)CC)C1=S (stereo not given),GI50,MDA-MB-468 breast,1.54 µM
same,TGI,MDA-MB-468 breast,2.89 µM
Nc1nc(Nc2ccc3c(c2)CCC(N2CCCC2)CC3)nn1-c1cc2c(nn1)-c1ccccc1CCC2 (stereo not given),GI50,MDA-MB-468 breast,1.4 µM
same,TGI,MDA-MB-468 breast,2.9 µM
COc1ccc(-c2nn(-c3cccc(NC(=O)Nc4cccc(C(F)(F)F)c4)c3)cc2-c2ccncc2)cc1Cl,GI50,MDA-MB-468 breast,1.54 µM
same,TGI,MDA-MB-468 breast,6.47 µM
CN1CCN(c2cc(Nc3cc(C4CC4)[nH]n3)nc(Nc3ccc(CC(=O)NCc4cccc(F)c4)cc3)n2)CC1,GI50,MDA-MB-468 breast,2.6 µM
same,TGI,MDA-MB-468 breast,16.7 µM
COc1cc(/C=C/C(=O)c2cc(OC)c(OC)c(OC)c2)cc(OC)c1OC,GI50,MDA-MB-468 breast,3.07 µM
same,TGI,MDA-MB-468 breast,14.8 µM
CN(C)CCCC(=O)Nc1ccc(Cn2nnc3c2C(=O)c2nnn(Cc4ccc(NC(=O)CCCN(C)C)cc4)c2C3=O)cc1,GI50,MDA-MB-468 breast,1.3 µM
same,TGI,MDA-MB-468 breast,2.97 µM
CCOC(=O)c1cnc2c(cnn2CC)c1NN=C(C)C,GI50,MDA-MB-468 breast,31.3 µM
same,TGI,MDA-MB-468 breast,> 100 µM
CC(C)[C@@H](CS(=O)(=O)C(C)C)N1C(=O)[C@@](C)(CC(=O)O)C[C@H](c2cccc(Cl)c2)[C@H]1c1ccc(Cl)cc1,GI50,MDA-MB-468 breast,11.6 µM
same,TGI,MDA-MB-468 breast,45 µM
CC(C)(C)n1cc(-c2ccnc(NCCNS(=O)(=O)c3cccc4ccccc34)c2)c(-c2cccc(F)c2)n1,GI50,MDA-MB-468 breast,11 µM
same,TGI,MDA-MB-468 breast,33.6 µM
C#CC#CC#CC#CC#CC#CC#CC#CCC1OC[C@H](COC(=O)O[C@@H](C(=O)O[C@H]2C[C@@]3(O)[C@@H](OC(=O)c4ccccc4)[C@@H]4[C@]5(OC(C)=O)CO[C@@H]5C[C@H](O)[C@@]4(C)C(=O)[C@H](OC(C)=O)C(=C2C)C3(C)C)[C@@H](NC(=O)c2ccccc2)c2ccccc2)O1 (stereo not given in full),GI50,MDA-MB-468 breast,0.139 µM
same,TGI,MDA-MB-468 breast,0.922 µM
NCC(=O)CCC(=O)O,GI50,MDA-MB-468 breast,> 100 µM
same,TGI,MDA-MB-468 breast,> 100 µM
COC1CCC(n2c([C@@H]3CCCC(=O)N3c3ccc(F)c(F)c3)nc3cc(-c4c(C)noc4C)ccc32)CC1 (stereo not given in full),GI50,MDA-MB-468 breast,3.95 µM
same,TGI,MDA-MB-468 breast,28.4 µM
CC(C)(C)c1ccc(C(=O)Nc2sc3c(c2C(N)=O)CC/C(=N\O)C3)cc1,GI50,MDA-MB-468 breast,3.06 µM
same,TGI,MDA-MB-468 breast,9.38 µM
CCCCc1nc2cc(/C=C/C(=O)NO)ccc2n1CCN(CC)CC,GI50,MDA-MB-468 breast,0.177 µM
same,TGI,MDA-MB-468 breast,1.91 µM
